The conditions of data set [1]: cited from earlier work.
A short description of data set [2]: Bioavailability in monkeys (plasma pharmacokinetics, HPLC). It counts as in vivo. The note with it: cynomolgus monkey. Here is the method: Pharmacokinetic parameters were measured following intravenous (i.v.) administration and oral (p.o.) administration. The test composition consisted of four male cynomolgus monkeys. The i.v. dose was administered as a bolus, at a dosage level of 3 mg/kg. The oral doses were administered as soft gelatin capsules, at a dosage level of 10 mg/kg (2 capsules/monkey/dose). The oral formulations were as described in Table 6, below.
Blood samples were collected at predetermined time points. […] Pharmacokinetic parameters were estimated by non-compartmental methods. In Table 7, Cmax is peak plasma concentration; Tmax is time to peak plasma concentration; Tt/2 is apparent elimination half-life; AUC is area under the curve; and F % is absolute bioavailability.

Another data set is described as follows: physchem. Format: physicochemical. From the text: Thus, dissolving the fused pyrrolocarbazole initially in this particular particle-forming composition achieves a better than 3.2-fold increase in fused pyrrolocarbazole concentration in the final solution. Because initial contact with an aqueous medium occurs in vitro or in vivo, the non-aqueous particle-forming compositions are useful for therapeutic administration of a fused pyrrolocarbazole to a mammal.

The subject of data set [3] is rat tumor model of prostate cancer. The experiment in a line: Rat tumor model of prostate cancer. It counts as in vivo.
The nature of a further data set: in vivo. The conditions noted are these: beagle, dog, iv, 1 mg/kg.

Molecules are shown by their SMILES. ≈ marks a conversion by molar mass, not a printed value. Read-outs that look alike come from different tables or passages of the source.

Method for in vivo: An intravenous dose was included as the third formulation in the crossover design. […] The plasma concentrations, as determined by HPLC with fluorescence detection, were normalized to a 1 mg/kg dose. Pharmacokinetic parameters, including peak plasma concentration (Cmax), time to peak plasma concentration (Tmax), apparent elimination half life (t1/2), area under the curve (AUCoo) and the absolute bioavailability (F %) were determined.

On to `C[C@]12O[C@H](C[C@]1(O)C(=O)O)n1c3ccccc3c3c4c(c5c6ccccc6n2c5c31)CNC4=O` [Compound K-252b, K-252b], for which, in data set [1], the solubility in water result was “insoluble”.
Regarding `C[C@@H]1O[C@@H](n2c3ccccc3c3c4c(c5c6ccccc6[nH]c5c32)CNC4=O)[C@H](O)[C@H](O)[C@H]1O` [Compound K-252d, K-252d], the solubility in water entry in data set [1] was “insoluble”.
Take `CCSCc1ccc2c(c1)c1c3c(c4c5cc(CSCC)ccc5n5c4c1n2C1CC(O)(C(=O)OC)C5(C)O1)CNC3=O` (stereo not shown) [Compound IIa-51]: in data set [2] (i.v. bolus 3 mg/kg, PEG 1450:Pluronic F68:hydroxypropyl-β-cyclodextrin:water), the Tt/2 worked out at 3.0 h. The AUC(0-t) in data set [2] (male, plasma, iv, i.v. bolus 3 mg/kg, PEG 1450:Pluronic F68:hydroxypropyl-β-cyclodextrin:water, read-out: AUC0-4) worked out at 2.5 ± 0.348 µg·h/mL. The clearance in data set [2] (male, plasma, iv, i.v. dose 3 mg/kg) is 1.1 L/h/kg. In data set [2] (male, plasma, iv, i.v. dose 3 mg/kg, read-out: mean volume of distribution), the Vd came to 4.9 ± 0.7 L/kg.
As for `CC12OC(CC1(O)CO)n1c3ccccc3c3c4c(c5c6ccccc6n2c5c31)CNC4=O` (stereo not shown) [Compound IIa-12], the solubility in water result in the data set “physchem” is “essentially no solubility”. For the same compound, the solubility in “physchem” (aqueous with cosolvent or surfactant or cyclodextrin, kinetic from dmso stock) was 0.57 mg/mL (≈ 1300 µM); in the data set “physchem” (aqueous with cosolvent or surfactant or cyclodextrin, thermodynamic from solid), 0.18 mg/mL (≈ 410 µM); in “physchem” (organic solvent or mixture) it was 28.4 mg/mL (≈ 64700 µM). In data set [3], the anticancer activity result is “anticancer activity”. Moreover, in the data set “in vivo”, the clearance was 0.79 L/h/kg. This compound gave a half-life in the data set “in vivo” of 1.16 h. The Vd in the data set “in vivo” (apparent volume of distribution Vc) is 0.96 L/kg; in the data set “in vivo” (apparent volume of distribution Vβ), 1.35 L/kg.
With `COC(=O)[C@@]1(O)C[C@H]2O[C@]1(C)n1c3ccccc3c3c4c(c5c6ccccc6n2c5c31)C(=O)NC4` [Compound K-252a, K-252a], the solubility in water entry in data set [1] is on record as “insoluble”.

The values are drawn from US7795246B2, “Particle-forming compositions containing fused pyrrolocarbazoles” (Cephalon, Inc., priority 1998, dated 2010).
